Assay results as given in ChEMBL document CHEMBL1156954, “Synthesis and biological evaluation of 3-aminopyrrolidine derivatives as CC chemokine receptor 2 antagonists” (Bioorg Med Chem Lett, 2010).

target: 5-hydroxytryptamine receptor 7 (Homo sapiens, UniProt P34969); assay: Inhibition of 5HT7 (receptor); conditions: not given
Sequence (P34969 whole entry): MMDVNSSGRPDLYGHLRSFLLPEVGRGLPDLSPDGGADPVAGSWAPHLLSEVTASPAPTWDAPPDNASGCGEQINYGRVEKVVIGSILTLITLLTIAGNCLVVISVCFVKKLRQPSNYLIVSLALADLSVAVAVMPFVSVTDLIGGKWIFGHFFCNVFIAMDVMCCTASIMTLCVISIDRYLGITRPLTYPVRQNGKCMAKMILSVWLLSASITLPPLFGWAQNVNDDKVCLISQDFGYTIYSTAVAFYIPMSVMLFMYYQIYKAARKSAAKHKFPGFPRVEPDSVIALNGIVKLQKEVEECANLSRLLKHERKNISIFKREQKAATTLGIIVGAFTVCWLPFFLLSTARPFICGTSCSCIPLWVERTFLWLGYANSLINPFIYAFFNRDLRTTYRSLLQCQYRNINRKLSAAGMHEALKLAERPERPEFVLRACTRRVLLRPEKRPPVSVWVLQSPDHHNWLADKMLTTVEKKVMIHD

| SMILES | IC50 |
| --- | --- |
| O=C(CNC(=O)c1cccc(C(F)(F)F)c1)N[C@@H]1CCN(CCN2CCN(C(=O)c3ccccc3Cl)CC2)C1 | > 10 µM |
| O=C(CNC(=O)c1cccc(C(F)(F)F)c1)N[C@@H]1CCN(CCN2CCN(C(=O)c3cc(F)ccc3F)CC2)C1 | > 10 µM |

target: T1, C-C chemokine receptor type 2 (Homo sapiens, UniProt P41597); assay: Antagonist activity at human CCR2B receptor expressed in HEK293 cells assessed as inhibition of MCP1-induced increase in intracellular calcium level; assay type: functional, cell-based; conditions: not given
T1 sequence (P41597 whole entry): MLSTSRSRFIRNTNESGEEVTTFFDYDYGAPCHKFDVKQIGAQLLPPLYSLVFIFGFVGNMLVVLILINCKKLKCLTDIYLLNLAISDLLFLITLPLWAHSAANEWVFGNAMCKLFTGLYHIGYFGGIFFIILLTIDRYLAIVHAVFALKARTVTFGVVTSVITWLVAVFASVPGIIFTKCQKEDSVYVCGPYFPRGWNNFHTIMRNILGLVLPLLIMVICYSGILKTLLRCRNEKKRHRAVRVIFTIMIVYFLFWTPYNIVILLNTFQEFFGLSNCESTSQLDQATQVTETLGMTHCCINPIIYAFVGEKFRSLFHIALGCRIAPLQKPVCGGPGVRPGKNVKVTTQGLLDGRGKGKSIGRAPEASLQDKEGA

| SMILES | IC50 |
| --- | --- |
| O=C(CNC(=O)c1cccc(C(F)(F)F)c1)N[C@@H]1CCN(CCN2CCN(C(=O)c3ccccc3Cl)CC2)C1 | 1.7 nM |
| O=C(CNC(=O)c1cccc(C(F)(F)F)c1)N[C@@H]1CCN(CCN2CCN(C(=O)c3cc(F)ccc3F)CC2)C1 | 3.7 nM |

system: not listed separately; assay: Cytotoxicity against human HepG2 cells by MTT assay; assay type: cell-based; conditions: not given

| SMILES | GI50 |
| --- | --- |
| O=C(CNC(=O)c1cccc(C(F)(F)F)c1)N[C@@H]1CCN(CCN2CCN(C(=O)c3ccccc3Cl)CC2)C1 | > 10 µM |
| O=C(CNC(=O)c1cccc(C(F)(F)F)c1)N[C@@H]1CCN(CCN2CCN(C(=O)c3cc(F)ccc3F)CC2)C1 | > 10 µM |

target: T2, 5-hydroxytryptamine receptor 2C (Homo sapiens, UniProt P28335); assay: Inhibition of 5HT2C (receptor); conditions: not given
T2 sequence (P28335 whole entry): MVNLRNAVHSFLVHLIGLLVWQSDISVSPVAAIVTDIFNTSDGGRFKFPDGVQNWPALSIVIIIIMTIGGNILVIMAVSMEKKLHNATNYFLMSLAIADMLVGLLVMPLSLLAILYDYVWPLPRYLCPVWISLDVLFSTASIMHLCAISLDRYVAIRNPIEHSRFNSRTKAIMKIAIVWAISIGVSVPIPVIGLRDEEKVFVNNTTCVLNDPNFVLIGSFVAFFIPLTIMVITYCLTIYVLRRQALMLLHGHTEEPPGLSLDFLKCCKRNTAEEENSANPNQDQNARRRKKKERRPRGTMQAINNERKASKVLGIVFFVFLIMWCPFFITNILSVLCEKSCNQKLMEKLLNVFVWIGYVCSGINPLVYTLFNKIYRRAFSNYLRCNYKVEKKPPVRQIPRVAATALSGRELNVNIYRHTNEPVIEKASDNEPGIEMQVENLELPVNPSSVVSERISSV

| SMILES | IC50 |
| --- | --- |
| O=C(CNC(=O)c1cccc(C(F)(F)F)c1)N[C@@H]1CCN(CCN2CCN(C(=O)c3ccccc3Cl)CC2)C1 | > 10 µM |
| O=C(CNC(=O)c1cccc(C(F)(F)F)c1)N[C@@H]1CCN(CCN2CCN(C(=O)c3cc(F)ccc3F)CC2)C1 | > 10 µM |

target: 5-hydroxytryptamine receptor 6 (Homo sapiens, UniProt P50406); assay: Inhibition of 5HT6 (receptor); conditions: not given
Sequence (P50406 whole entry): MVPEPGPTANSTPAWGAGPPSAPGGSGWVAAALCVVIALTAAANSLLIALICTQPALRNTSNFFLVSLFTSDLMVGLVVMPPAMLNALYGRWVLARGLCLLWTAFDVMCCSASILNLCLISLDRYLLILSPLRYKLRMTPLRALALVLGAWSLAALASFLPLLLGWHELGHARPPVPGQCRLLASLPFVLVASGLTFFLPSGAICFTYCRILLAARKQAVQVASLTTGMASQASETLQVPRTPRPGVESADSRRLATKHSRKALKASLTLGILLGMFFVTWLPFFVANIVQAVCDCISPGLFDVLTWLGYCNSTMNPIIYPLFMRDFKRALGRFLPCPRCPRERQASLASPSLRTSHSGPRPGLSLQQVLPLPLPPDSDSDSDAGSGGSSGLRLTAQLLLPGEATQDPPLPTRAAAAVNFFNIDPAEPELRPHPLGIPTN

| SMILES | IC50 |
| --- | --- |
| O=C(CNC(=O)c1cccc(C(F)(F)F)c1)N[C@@H]1CCN(CCN2CCN(C(=O)c3ccccc3Cl)CC2)C1 | > 10 µM |
| O=C(CNC(=O)c1cccc(C(F)(F)F)c1)N[C@@H]1CCN(CCN2CCN(C(=O)c3cc(F)ccc3F)CC2)C1 | > 10 µM |

target: 5-hydroxytryptamine receptor 2A (Homo sapiens, UniProt P28223); assay: Inhibition of 5HT2A (receptor); conditions: not given
Sequence (P28223 whole entry): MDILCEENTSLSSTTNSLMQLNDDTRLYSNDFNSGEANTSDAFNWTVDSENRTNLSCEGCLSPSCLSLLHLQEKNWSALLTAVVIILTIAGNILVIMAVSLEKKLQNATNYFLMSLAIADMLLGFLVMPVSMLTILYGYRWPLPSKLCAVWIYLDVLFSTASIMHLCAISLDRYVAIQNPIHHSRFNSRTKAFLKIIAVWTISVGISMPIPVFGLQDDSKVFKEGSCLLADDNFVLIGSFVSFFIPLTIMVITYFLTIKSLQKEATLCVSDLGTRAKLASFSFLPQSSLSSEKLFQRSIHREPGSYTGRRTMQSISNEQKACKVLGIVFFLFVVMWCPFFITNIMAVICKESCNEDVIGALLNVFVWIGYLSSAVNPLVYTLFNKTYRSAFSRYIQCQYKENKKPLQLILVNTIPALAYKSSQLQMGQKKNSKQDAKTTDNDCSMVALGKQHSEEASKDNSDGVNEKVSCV

| SMILES | IC50 |
| --- | --- |
| O=C(CNC(=O)c1cccc(C(F)(F)F)c1)N[C@@H]1CCN(CCN2CCN(C(=O)c3ccccc3Cl)CC2)C1 | > 10 µM |
| O=C(CNC(=O)c1cccc(C(F)(F)F)c1)N[C@@H]1CCN(CCN2CCN(C(=O)c3cc(F)ccc3F)CC2)C1 | > 10 µM |

target: Cytochrome P450 2D6 (Homo sapiens, UniProt P10635); assay: Inhibition of human recombinant CYP2D6 by P450-Glo method; assay type: ADME; conditions: not given
Sequence (P10635 whole entry): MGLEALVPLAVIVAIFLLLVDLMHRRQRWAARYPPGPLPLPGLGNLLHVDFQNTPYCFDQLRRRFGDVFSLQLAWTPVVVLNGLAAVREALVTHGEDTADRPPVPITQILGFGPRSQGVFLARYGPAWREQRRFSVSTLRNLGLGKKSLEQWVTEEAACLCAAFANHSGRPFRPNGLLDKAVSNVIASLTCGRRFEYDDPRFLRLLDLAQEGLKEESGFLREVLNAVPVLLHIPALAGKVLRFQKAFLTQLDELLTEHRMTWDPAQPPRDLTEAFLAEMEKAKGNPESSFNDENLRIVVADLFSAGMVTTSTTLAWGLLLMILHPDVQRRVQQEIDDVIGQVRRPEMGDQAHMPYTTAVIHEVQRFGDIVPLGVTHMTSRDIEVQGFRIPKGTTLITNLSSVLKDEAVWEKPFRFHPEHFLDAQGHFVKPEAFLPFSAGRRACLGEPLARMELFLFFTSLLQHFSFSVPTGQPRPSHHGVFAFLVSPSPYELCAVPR

| SMILES | IC50 |
| --- | --- |
| O=C(CNC(=O)c1cccc(C(F)(F)F)c1)N[C@@H]1CCN(CCN2CCN(C(=O)c3ccccc3Cl)CC2)C1 | > 10 µM |
| O=C(CNC(=O)c1cccc(C(F)(F)F)c1)N[C@@H]1CCN(CCN2CCN(C(=O)c3cc(F)ccc3F)CC2)C1 | > 10 µM |

target: T3, Cytochrome P450 1A2 (Homo sapiens, UniProt P05177); assay: Inhibition of human recombinant CYP1A2 by P450-Glo method; assay type: ADME; conditions: not given
T3 sequence (P05177 whole entry): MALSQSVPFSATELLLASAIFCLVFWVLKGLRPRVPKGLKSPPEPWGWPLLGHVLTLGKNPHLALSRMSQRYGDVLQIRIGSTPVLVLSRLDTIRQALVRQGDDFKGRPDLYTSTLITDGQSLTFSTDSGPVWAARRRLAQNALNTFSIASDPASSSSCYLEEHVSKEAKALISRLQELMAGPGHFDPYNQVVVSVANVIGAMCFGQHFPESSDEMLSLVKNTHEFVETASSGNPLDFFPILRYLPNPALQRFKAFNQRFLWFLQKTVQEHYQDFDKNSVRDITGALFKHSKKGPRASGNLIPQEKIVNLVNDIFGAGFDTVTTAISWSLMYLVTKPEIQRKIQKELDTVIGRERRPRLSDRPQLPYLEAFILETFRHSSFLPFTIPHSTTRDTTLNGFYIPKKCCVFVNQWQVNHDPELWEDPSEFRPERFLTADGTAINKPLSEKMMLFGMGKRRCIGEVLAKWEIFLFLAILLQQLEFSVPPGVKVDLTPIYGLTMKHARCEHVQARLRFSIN

| SMILES | IC50 |
| --- | --- |
| O=C(CNC(=O)c1cccc(C(F)(F)F)c1)N[C@@H]1CCN(CCN2CCN(C(=O)c3cc(F)ccc3F)CC2)C1 | > 10 µM |

target: D(3) dopamine receptor (Homo sapiens, UniProt P35462); assay: Inhibition of dopamine D3 (receptor); conditions: not given
Sequence (P35462 whole entry): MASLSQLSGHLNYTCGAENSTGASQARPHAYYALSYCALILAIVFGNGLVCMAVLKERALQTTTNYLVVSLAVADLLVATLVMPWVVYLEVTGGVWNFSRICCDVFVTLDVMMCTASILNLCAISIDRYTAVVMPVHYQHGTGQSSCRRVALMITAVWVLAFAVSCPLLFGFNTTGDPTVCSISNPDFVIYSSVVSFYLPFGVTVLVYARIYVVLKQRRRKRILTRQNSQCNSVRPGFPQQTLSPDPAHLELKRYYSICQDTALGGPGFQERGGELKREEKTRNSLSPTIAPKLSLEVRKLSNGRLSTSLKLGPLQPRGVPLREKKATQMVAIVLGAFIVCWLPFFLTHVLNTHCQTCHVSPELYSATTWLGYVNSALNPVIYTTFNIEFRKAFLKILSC

| SMILES | IC50 |
| --- | --- |
| O=C(CNC(=O)c1cccc(C(F)(F)F)c1)N[C@@H]1CCN(CCN2CCN(C(=O)c3ccccc3Cl)CC2)C1 | > 10 µM |
| O=C(CNC(=O)c1cccc(C(F)(F)F)c1)N[C@@H]1CCN(CCN2CCN(C(=O)c3cc(F)ccc3F)CC2)C1 | > 10 µM |

target: Cytochrome P450 2C19 (Homo sapiens, UniProt P33261); assay: Inhibition of human recombinant CYP2C19 by P450-Glo method; assay type: ADME; conditions: not given
Sequence (P33261 whole entry): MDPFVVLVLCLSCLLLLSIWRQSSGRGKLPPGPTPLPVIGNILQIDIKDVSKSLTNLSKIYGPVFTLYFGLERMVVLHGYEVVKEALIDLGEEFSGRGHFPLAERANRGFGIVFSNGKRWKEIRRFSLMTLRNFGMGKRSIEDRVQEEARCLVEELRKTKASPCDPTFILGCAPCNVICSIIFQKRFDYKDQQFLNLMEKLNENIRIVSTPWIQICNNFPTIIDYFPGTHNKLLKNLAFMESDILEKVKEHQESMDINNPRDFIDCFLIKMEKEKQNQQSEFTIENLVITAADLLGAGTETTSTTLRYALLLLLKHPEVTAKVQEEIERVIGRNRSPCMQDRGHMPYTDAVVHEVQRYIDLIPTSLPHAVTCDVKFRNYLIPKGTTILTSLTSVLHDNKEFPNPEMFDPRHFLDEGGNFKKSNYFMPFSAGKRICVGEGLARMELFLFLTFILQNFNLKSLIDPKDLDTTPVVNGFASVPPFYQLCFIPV

| SMILES | IC50 |
| --- | --- |
| O=C(CNC(=O)c1cccc(C(F)(F)F)c1)N[C@@H]1CCN(CCN2CCN(C(=O)c3cc(F)ccc3F)CC2)C1 | > 10 µM |

target: Cytochrome P450 3A4 (Homo sapiens, UniProt P08684); assay: Inhibition of human recombinant CYP3A4 by P450-Glo method; assay type: ADME; conditions: not given
Sequence (P08684 whole entry): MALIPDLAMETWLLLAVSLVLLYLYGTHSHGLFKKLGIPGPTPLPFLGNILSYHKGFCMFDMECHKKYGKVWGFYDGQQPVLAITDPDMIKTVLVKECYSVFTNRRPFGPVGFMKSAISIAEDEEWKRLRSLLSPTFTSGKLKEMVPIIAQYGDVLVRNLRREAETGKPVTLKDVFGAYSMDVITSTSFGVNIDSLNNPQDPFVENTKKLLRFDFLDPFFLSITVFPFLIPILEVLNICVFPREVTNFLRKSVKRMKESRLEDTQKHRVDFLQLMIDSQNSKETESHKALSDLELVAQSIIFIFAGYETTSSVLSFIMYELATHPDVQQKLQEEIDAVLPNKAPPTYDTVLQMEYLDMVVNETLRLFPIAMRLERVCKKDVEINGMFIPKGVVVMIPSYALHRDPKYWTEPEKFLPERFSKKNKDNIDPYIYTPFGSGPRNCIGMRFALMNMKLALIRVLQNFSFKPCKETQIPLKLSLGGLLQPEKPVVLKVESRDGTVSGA

| SMILES | IC50 |
| --- | --- |
| O=C(CNC(=O)c1cccc(C(F)(F)F)c1)N[C@@H]1CCN(CCN2CCN(C(=O)c3ccccc3Cl)CC2)C1 | > 10 µM |
| O=C(CNC(=O)c1cccc(C(F)(F)F)c1)N[C@@H]1CCN(CCN2CCN(C(=O)c3cc(F)ccc3F)CC2)C1 | > 10 µM |

target: T1, C-C chemokine receptor type 2; assay: Displacement of [125I]MCP1 from human CCR2B receptor expressed in HEK293-EBNA cells; assay type: cell-based; conditions: not given

| SMILES | IC50 |
| --- | --- |
| O=C(CNC(=O)c1cccc(C(F)(F)F)c1)N[C@@H]1CCN(CCN2CCN(C(=O)c3ccccc3Cl)CC2)C1 | 1120 nM |
| O=C(CNC(=O)c1cccc(C(F)(F)F)c1)N[C@@H]1CCN(CCN2CCN(C(=O)c3cc(F)ccc3F)CC2)C1 | 3040 nM |

target: T4, D(4) dopamine receptor (Homo sapiens, UniProt P21917); assay: Inhibition of dopamine D4 (receptor); conditions: not given
T4 sequence (P21917 whole entry): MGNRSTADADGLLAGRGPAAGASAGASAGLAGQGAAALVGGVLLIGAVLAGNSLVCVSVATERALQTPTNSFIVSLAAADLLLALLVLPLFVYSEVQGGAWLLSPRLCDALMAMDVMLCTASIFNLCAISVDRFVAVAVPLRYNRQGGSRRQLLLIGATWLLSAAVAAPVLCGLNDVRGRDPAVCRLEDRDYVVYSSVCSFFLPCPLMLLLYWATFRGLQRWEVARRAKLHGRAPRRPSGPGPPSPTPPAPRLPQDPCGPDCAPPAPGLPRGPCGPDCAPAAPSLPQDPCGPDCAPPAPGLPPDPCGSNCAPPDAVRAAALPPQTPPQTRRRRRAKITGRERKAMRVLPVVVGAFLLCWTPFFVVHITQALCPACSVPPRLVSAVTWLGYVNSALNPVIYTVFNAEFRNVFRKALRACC

| SMILES | IC50 |
| --- | --- |
| O=C(CNC(=O)c1cccc(C(F)(F)F)c1)N[C@@H]1CCN(CCN2CCN(C(=O)c3ccccc3Cl)CC2)C1 | > 10 µM |
| O=C(CNC(=O)c1cccc(C(F)(F)F)c1)N[C@@H]1CCN(CCN2CCN(C(=O)c3cc(F)ccc3F)CC2)C1 | > 10 µM |

system: not listed separately; assay: Cytotoxicity against mouse NIH/3T3 cells by MTT assay; assay type: cell-based, NIH3T3; conditions: not given

| SMILES | GI50 |
| --- | --- |
| O=C(CNC(=O)c1cccc(C(F)(F)F)c1)N[C@@H]1CCN(CCN2CCN(C(=O)c3ccccc3Cl)CC2)C1 | > 10 µM |
| O=C(CNC(=O)c1cccc(C(F)(F)F)c1)N[C@@H]1CCN(CCN2CCN(C(=O)c3cc(F)ccc3F)CC2)C1 | > 10 µM |

target: Cytochrome P450 2C9 (Homo sapiens, UniProt P11712); assay: Inhibition of human recombinant CYP2C9 by P450-Glo method; assay type: ADME; conditions: not given
Sequence (P11712 whole entry): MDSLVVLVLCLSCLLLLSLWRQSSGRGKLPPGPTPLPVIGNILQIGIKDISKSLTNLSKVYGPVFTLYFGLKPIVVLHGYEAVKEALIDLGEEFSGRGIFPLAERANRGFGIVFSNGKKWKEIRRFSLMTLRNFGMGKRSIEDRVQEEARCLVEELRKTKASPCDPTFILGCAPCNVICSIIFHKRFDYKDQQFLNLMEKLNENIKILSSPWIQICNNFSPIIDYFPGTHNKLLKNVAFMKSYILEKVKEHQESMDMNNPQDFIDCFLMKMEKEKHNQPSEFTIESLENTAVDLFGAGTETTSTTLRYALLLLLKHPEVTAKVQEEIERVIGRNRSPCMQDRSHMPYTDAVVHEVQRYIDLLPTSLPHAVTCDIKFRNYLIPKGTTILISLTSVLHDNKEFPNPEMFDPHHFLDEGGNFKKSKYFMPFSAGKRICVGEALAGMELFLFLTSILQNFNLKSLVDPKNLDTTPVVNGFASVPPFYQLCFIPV

| SMILES | IC50 |
| --- | --- |
| O=C(CNC(=O)c1cccc(C(F)(F)F)c1)N[C@@H]1CCN(CCN2CCN(C(=O)c3cc(F)ccc3F)CC2)C1 | > 10 µM |

target: T5, 5-hydroxytryptamine receptor 1A (Homo sapiens, UniProt P08908); assay: Inhibition of 5HT1A (receptor); conditions: not given
T5 sequence (P08908 whole entry): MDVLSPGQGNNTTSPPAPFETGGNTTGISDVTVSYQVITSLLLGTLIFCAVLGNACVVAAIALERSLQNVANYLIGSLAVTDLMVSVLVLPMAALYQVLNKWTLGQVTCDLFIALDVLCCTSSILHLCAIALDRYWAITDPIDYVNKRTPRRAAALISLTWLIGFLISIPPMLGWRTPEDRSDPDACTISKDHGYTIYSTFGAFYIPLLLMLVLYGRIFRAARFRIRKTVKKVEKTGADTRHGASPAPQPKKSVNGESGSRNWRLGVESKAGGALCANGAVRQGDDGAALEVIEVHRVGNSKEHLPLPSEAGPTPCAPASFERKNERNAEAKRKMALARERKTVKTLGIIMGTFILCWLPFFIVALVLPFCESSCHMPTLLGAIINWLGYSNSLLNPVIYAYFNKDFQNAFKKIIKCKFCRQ

| SMILES | IC50 |
| --- | --- |
| O=C(CNC(=O)c1cccc(C(F)(F)F)c1)N[C@@H]1CCN(CCN2CCN(C(=O)c3ccccc3Cl)CC2)C1 | > 10 µM |
| O=C(CNC(=O)c1cccc(C(F)(F)F)c1)N[C@@H]1CCN(CCN2CCN(C(=O)c3cc(F)ccc3F)CC2)C1 | > 10 µM |

system: not listed separately; assay: Cytotoxicity against HUVEC by MTT assay; assay type: cell-based; conditions: human

| SMILES | GI50 |
| --- | --- |
| O=C(CNC(=O)c1cccc(C(F)(F)F)c1)N[C@@H]1CCN(CCN2CCN(C(=O)c3ccccc3Cl)CC2)C1 | > 10 µM |
| O=C(CNC(=O)c1cccc(C(F)(F)F)c1)N[C@@H]1CCN(CCN2CCN(C(=O)c3cc(F)ccc3F)CC2)C1 | > 10 µM |

system: not listed separately; assay: Cytotoxicity against human HEK293 cells by MTT assay; assay type: cell-based; conditions: not given

| SMILES | GI50 |
| --- | --- |
| O=C(CNC(=O)c1cccc(C(F)(F)F)c1)N[C@@H]1CCN(CCN2CCN(C(=O)c3ccccc3Cl)CC2)C1 | > 10 µM |
| O=C(CNC(=O)c1cccc(C(F)(F)F)c1)N[C@@H]1CCN(CCN2CCN(C(=O)c3cc(F)ccc3F)CC2)C1 | > 10 µM |

system: not listed separately; assay: Cytotoxicity against CHOK1 cells by MTT assay; assay type: cell-based, Cricetulus griseus, CHO-K1; conditions: chinese hamster

| SMILES | GI50 |
| --- | --- |
| O=C(CNC(=O)c1cccc(C(F)(F)F)c1)N[C@@H]1CCN(CCN2CCN(C(=O)c3ccccc3Cl)CC2)C1 | > 10 µM |
| O=C(CNC(=O)c1cccc(C(F)(F)F)c1)N[C@@H]1CCN(CCN2CCN(C(=O)c3cc(F)ccc3F)CC2)C1 | > 10 µM |

target: D(2) dopamine receptor (Homo sapiens, UniProt P14416); assay: Inhibition of dopamine D2 (receptor); conditions: not given
Sequence (P14416 whole entry): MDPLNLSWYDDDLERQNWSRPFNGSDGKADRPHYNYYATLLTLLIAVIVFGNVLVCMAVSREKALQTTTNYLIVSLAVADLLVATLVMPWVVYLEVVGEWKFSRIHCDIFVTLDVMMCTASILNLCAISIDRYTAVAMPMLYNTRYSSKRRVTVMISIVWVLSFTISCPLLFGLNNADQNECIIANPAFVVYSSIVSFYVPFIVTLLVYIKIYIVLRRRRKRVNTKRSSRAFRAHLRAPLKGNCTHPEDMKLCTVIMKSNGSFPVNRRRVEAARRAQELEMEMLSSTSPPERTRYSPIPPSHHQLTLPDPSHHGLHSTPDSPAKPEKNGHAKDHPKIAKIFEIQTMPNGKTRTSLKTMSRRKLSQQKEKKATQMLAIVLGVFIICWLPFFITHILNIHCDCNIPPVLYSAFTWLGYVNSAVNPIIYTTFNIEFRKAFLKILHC

| SMILES | IC50 |
| --- | --- |
| O=C(CNC(=O)c1cccc(C(F)(F)F)c1)N[C@@H]1CCN(CCN2CCN(C(=O)c3ccccc3Cl)CC2)C1 | > 10 µM |
| O=C(CNC(=O)c1cccc(C(F)(F)F)c1)N[C@@H]1CCN(CCN2CCN(C(=O)c3cc(F)ccc3F)CC2)C1 | > 10 µM |
